Measurements as given in patent US11505592B2, “Diagnosis and therapy of multiple sclerosis” (PRINDEX S.R.L., priority 2015, dated 2022).

Experiments:
[1] = test system: MS sera; assay: PEPSCAN-based ELISA, binding of MS sera to library peptides; parameters: species or system human; details: ELISA binding value, MS sera n = 9
Source text: (§1) The linear and CLIPS peptides are synthesized based on the amino acid sequence of the target protein using standard Fmoc-chemistry and deprotected using […] with scavengers. The constrained peptides are synthesized on chemical scaffolds in order to reconstruct conformational epitopes, using Chemically Linked Peptides on Scaffolds (CLIPS) technology (Timmerman et al. (2007). For example, the single looped peptides are synthesized containing a dicysteine, which was cyclized by treating with alpha, alpha′-dibromoxylene and the size of the loop is varied by introducing cysteine residues at variable spacing. If other cysteines besides the newly introduced cysteines are present, they are replaced by alanine. The side-chains of the multiple cysteines in the peptides are coupled to CLIPS templates by reacting onto credit-card format polypropylene PEPSCAN cards (455 peptide formats/card) with a 0.5 mM solution of CLIPS template such as 1,3-bis (bromomethyl) benzene in ammonium bicarbonate (20 mM, pH 7.9)/acetonitrile (1:1(v/v)). The cards are gently shaken in the solution for 30 to 60 minutes while completely covered in solution. Finally, the cards are washed extensively with excess of H2O and sonicated in distrupt-buffer containing 1 percent SDS/0.1 percent beta-mercaptoethanol in PBS (pH 7.2) at 70° C. for 30 minutes, followed by sonication in H2O for another 45 minutes.
(§2) The binding of antibody to each peptide is tested in a PEPSCAN-based ELISA. The 455-well credit card format polypropylene cards containing the covalently linked peptides are incubated with primary antibody solution for example consisting of 1/1000 diluted serum in blocking solution, for example 4% horse serum, 5% ovalbumin (w/v) in PBS/1% Tween. After washing, the peptides are incubated with a 1/1000 dilution of antibody peroxidase conjugate for one hour at 25° C. After washing, the peroxidase substrate 2,2′-azino-di-3-ethylbenzthiazoline sulfonate (ABTS) and 2 microlitres of 3 percent H2O2 are added. After one hour, the color development are measured. The color development are quantified with a charge coupled device (CCD)-camera and an image processing system (Slootstra et al., 1996).
(§3) The raw data are optical values obtained by a CCD-camera calibrated to export absorption values compatible with a standard 96-well plate ELISA-reader. First the CCD-camera makes a picture of the card before peroxidase coloring and then again a picture after the peroxidase coloring. These two pictures are substracted from each other yielding a binding value for each peptide.
(§4) All peptides have been synthesized in a peptide array format and the binding of 20 different sera to all peptide libraries were measured in an ELISA based set up following the procedure described in detail in the method section “Peptide synthesis and screening assays”. In particular 2 sets of experiments were performed on the 2 libraries by using 2 different dilutions of the human patients sera. In the first set of experiment the 20 sera were used at 1:2500 dilutions, while in the second experiment the dilution of the sera was 1:1000. The binding of the different sera to all peptides was quantified and analyzed in detail (Tables 1 and 2, FIGS. 15A, B, C, D and […]

[2] = test system: CTRL sera; assay: PEPSCAN-based ELISA, binding of control (CTRL) sera to library peptides; parameters: species or system human; details: ELISA binding value, CTRLs n = 10
Source text: as §1, §2, §3, §4

Sequence	MEAN MS ([1]; 5HT2A receptor library)	MEAN CTRL ([2]; 5HT2A receptor library)	MEAN MS ([1]; NOX2 library)	MEAN CTRL ([2]; NOX2 library)
CSTTNSLMQLNDDTCMDILSEENTSLSSC [Peptide 11]	321.28	186.85		
CSYLNFARKRIKNPEGCGDRQNESYLNFARKRC [SEQ ID NO: 125]			786.389	430.35
CSYLNFARKRIKNPEGCITVSEQKISEWGKIKC [SEQ ID NO: 122]			796.222	457.4
CSYLNFARKRIKNPEGCNFARKRIKNPEGGLYC [SEQ ID NO: 138]			659.944	371.8
CSYLNFARKRIKNPEGCQNESYLNFARKRIKNC [SEQ ID NO: 61]			778.278	398.9
CTRLYSNDFNSGEACKESSNEDVIGALLC [Peptide 42]	561.03	333.60		
CTVDSENRTNLSSECMDILSEENTSLSSC [Peptide 13]	300.11	160.80		
CTVDSENRTNLSSECRTNLSSEGSLSPSC [Peptide 25]	507.22	296.95		
CVALSELGDRQNESYLCQNESYLNFARKRIKNC [SEQ ID NO: 110]			761.778	406.75
CVFKEGSSLLADDNCKESSNEDVIGALLC [Peptide 38]	594.61	348.13		
CVFKEGSSLLADDNCSDAFNWTVDSENRC [Peptide 47]	399.89	244.50		
CVNARVNNSDPYSVALCTVSEQKISEWGKIKEC [SEQ ID NO: 154]			799.667	455.6
CVNARVNNSDPYSVALCVSEQKISEWGKIKESC [SEQ ID NO: 128]			772.583	436.575
CVRGQTAESLAVHNITCITVSEQKISEWGKIKC [SEQ ID NO: 134]			758.278	440.5
CVRGQTAESLAVHNITCQNESYLNFARKRIKNC [SEQ ID NO: 66]			824.500	438.35
CVRGQTAESLAVHNITCSLAVHNITVSEQKISC [SEQ ID NO: 156]			546.444	304.75

Sequence	MEAN MS ([1]; 5HT2A receptor library)	MEAN CTRL ([2]; 5HT2A receptor library)	MEAN MS ([1]; NOX2 library)	MEAN CTRL ([2]; NOX2 library)
CVRGQTAESLAVHNITCVHNITVSEQKISEWGC [SEQ ID NO: 148]			445.278	263.5
CVSEQKISEWGKIKESCEQKISEWGKIKESPIC [SEQ ID NO: 84]			811.056	443.5
CVSEQKISEWGKIKESCGDRQNESYLNFARKRC [SEQ ID NO: 112]			846.778	462.45
CVSEQKISEWGKIKESCQNESYLNFARKRIKNC [SEQ ID NO: 64]			804.556	402.9
CVSEQKISEWGKIKESCTVSEQKISEWGKIKEC [SEQ ID NO: 142]			760.333	446.5
CVSEQKISEWGKIKESCVSEQKISEWGKIKESC [SEQ ID NO: 115]			756.639	432.35
DPYSVALSELAARQN [SEQ ID NO: 78]			565.389	325.05
DPYSVALSELGDRQN [SEQ ID NO: 132]			300.556	177.25
ESYLNFARK [SEQ ID NO: 107]			535.667	296.3
FARKRIKNP [SEQ ID NO: 67]			666.111	337.4
GDRQNESYLNAGRKR [SEQ ID NO: 68]			547.278	294.2
GDRQNESYLNFARKR [SEQ ID NO: 120]			325.333	163.95
GKIKECPIP [SEQ ID NO: 102]			594.611	324.35
GYRWPLPSK [Peptide 14]	623.00	322.80		
KISEWGKIK [SEQ ID NO: 83]			404.500	223.9
LGDRQNESYLAAARK [SEQ ID NO: 127]			478.278	262.75
